Results taken from patent US10266609B2, “Immunomodulating beta-1,6-D-glucans” (Innate Biotherapeutics, LLC, priority 2014, dated 2019).

The compounds below were run on Anti-β-1,6-Glucan IgG antibodies (affinity purified from IVIG, Baxter) (assay: ELISA: binding of oligosaccharides to anti-β-1,6-glucan antibodies). Details: plate coated with oligosaccharide in PBS; 40 ug/mL anti-Beta 1,6 Glucan IgG; anti-human IgG-HRP, TMB, absorbance at 620 nm.
Description: Binding of oligosaccharides to anti-β-1,6-glucan antibodies is performed as described in the following protocol.
• 1. […] Anti-β-1,6-Glucan IgG antibodies (affinity purified from IVIG, Baxter) • 6. […] PBS-Tween buffer (PH 7.2, 0.05% Tween 20, Kpl cat #51-12-01) II. Method: Detection of Anti-Beta Glucan IgG by ELISA • 1. Coat plate with oligosaccharides in PBS overnight at 4° C. • 2. Wash 3 times with 250 uL of PBS-Tween • 3. Empty plate • 4. Block plate with 200 uL of Casein for 1 hour at room temperature • 5. Empty plate • 6. Add 40 ug/mL anti-Beta 1,6 Glucan IgG (4 ug/well) in Casein • 7. Incubate for 45 min at room temperature • 8. Wash 3 times with 250 uL of PBS-Tween • 9. Empty plate • 10. Add detection antibody: anti-human IgG-HRP at 1:5000—in casein. Incubate for 45 min at room temperature in the dark • 11. Wash 5 times with 250 uL of PBS-Tween • 12. Empty plate • 13. Add 100 uL of one step ultra TMB • 14. Measure the absorbance at 620 nm every 1 min for 60 min Tables 1-3 provide ELISA assay data for certain glucan compounds.
Note: key: a plus (+) sign indicates that the glucan was active in the assay; a minus (−) sign indicates that the glucan was not active; the '+/−' symbol indicates inconclusive results.

Row | ELISA assay data: glucan active in detection of anti-beta glucan IgG | Compound
1 | + | [N-]=[N+]=NCCOC1OC(COC2OC(COC3OC(COC4OC(COC5OC(COC6OC(COC7OC(COC8OC(COC9OC(CO)C(O)C(O)C9O)C(O)C(O)C8O)C(O)C(O)C7O)C(O)C(O)C6O)C(O)C(O)C5O)C(O)C(O)C4O)C(O)C(O)C3O)C(O)C(O)C2O)C(O)C(O)C1O (stereo not drawn) [α-O(CH2)2N3, n=9]
2 | + | OC[C@H]1O[C@@H](OC[C@H]2O[C@@H](OC[C@H]3O[C@@H](OC[C@H]4O[C@@H](OC[C@H]5O[C@@H](OC[C@H]6O[C@@H](OC[C@H]7O[C@@H](OC[C@H]8O[C@H](OCCCl)[C@H](O)[C@@H](O)[C@@H]8O)[C@H](O)[C@@H](O)[C@@H]7O)[C@H](O)[C@@H](O)[C@@H]6O)[C@H](O)[C@@H](O)[C@@H]5O)[C@H](O)[C@@H](O)[C@@H]4O)[C@H](O)[C@@H](O)[C@@H]3O)[C@H](O)[C@@H](O)[C@@H]2O)[C@H](O)[C@@H](O)[C@@H]1O [α-O(CH2)2Cl, n=8, 2-chloroethyl [O-β-D-glucopyranosyl-1,6]7-D-glucopyranoside]
3 | + | [N-]=[N+]=NCCOC1OC(COC2OC(COC3OC(COC4OC(COC5OC(CO)C(O)C(O)C5O)C(O)C(O)C4O)C(O)C(O)C3O)C(O)C(O)C2O)C(O)C(O)C1O (stereo not drawn) [α-O(CH2)2N3, n=5]
4 | + | [N-]=[N+]=NCCO[C@@H]1OC(CO[C@@H]2OC(CO[C@@H]3OC(CO[C@@H]4OC(CO[C@@H]5OC(CO[C@@H]6O[C@H](CO)[C@@H](O)[C@H](O)[C@H]6O)[C@@H](O)[C@H](O)[C@H]5O)[C@@H](O)[C@H](O)[C@H]4O)[C@@H](O)[C@H](O)[C@H]3O)[C@@H](O)[C@H](O)[C@H]2O)[C@@H](O)[C@H](O)[C@H]1O (stereo partly drawn) [β-O(CH2)2N3, n=6, 2-Azidoethyl [O-β-D-glucopyranosyl-1,6]5-β-D-glucopyranoside]
5 | + | [N-]=[N+]=NCCO[C@H]1O[C@H](CO[C@@H]2O[C@H](CO[C@@H]3O[C@H](CO[C@@H]4O[C@H](CO)[C@@H](O)[C@H](O)[C@H]4O)[C@@H](O)[C@H](O)[C@H]3O)[C@@H](O)[C@H](O)[C@H]2O)[C@@H](O)[C@H](O)[C@H]1O [α-O(CH2)2N3, n=4, 1-O-(2-azidoethyl)-6-[O-β-D-glucopyranosyl-1,6]3-α-D-glucopyranoside]
6 | + | [N-]=[N+]=NCCOC1OC(COC2OC(COC3OC(COC4OC(COC5OC(COC6OC(COC7OC(CO)C(O)C(O)C7O)C(O)C(O)C6O)C(O)C(O)C5O)C(O)C(O)C4O)C(O)C(O)C3O)C(O)C(O)C2O)C(O)C(O)C1O (stereo not drawn) [α-O(CH2)2N3, n=7]
7 | + | OC[C@H]1O[C@@H](OC[C@H]2O[C@@H](OC[C@H]3O[C@@H](OC[C@H]4O[C@@H](OC[C@H]5O[C@@H](OC[C@H]6O[C@@H](OC[C@H]7O[C@@H](OC[C@H]8O[C@@H](OC[C@H]9OC(OCCCl)[C@H](O)[C@@H](O)[C@@H]9O)[C@H](O)[C@@H](O)[C@@H]8O)[C@H](O)[C@@H](O)[C@@H]7O)[C@H](O)[C@@H](O)[C@@H]6O)[C@H](O)[C@@H](O)[C@@H]5O)[C@H](O)[C@@H](O)[C@@H]4O)[C@H](O)[C@@H](O)[C@@H]3O)[C@H](O)[C@@H](O)[C@@H]2O)[C@H](O)[C@@H](O)[C@@H]1O (stereo partly drawn) [α-O(CH2)2Cl, n=9, 2-chloroethyl [O-β-D-glucopyranosyl-1,6]8-D-glucopyranoside]
8 | + | OC[C@H]1O[C@@H](OC[C@H]2O[C@@H](OC[C@H]3O[C@@H](OC[C@H]4O[C@@H](OC[C@H]5O[C@@H](OC[C@H]6O[C@@H](OC[C@H]7O[C@@H](OC[C@H]8O[C@@H](OC[C@H]9O[C@@H](OC[C@H]%10O[C@@H](OC[C@H]%11O[C@@H](OC[C@H]%12OC(O)[C@H](O)[C@@H](O)[C@@H]%12O)[C@H](O)[C@@H](O)[C@@H]%11O)[C@H](O)[C@@H](O)[C@@H]%10O)[C@H](O)[C@@H](O)[C@@H]9O)[C@H](O)[C@@H](O)[C@@H]8O)[C@H](O)[C@@H](O)[C@@H]7O)[C@H](O)[C@@H](O)[C@@H]6O)[C@H](O)[C@@H](O)[C@@H]5O)[C@H](O)[C@@H](O)[C@@H]4O)[C@H](O)[C@@H](O)[C@@H]3O)[C@H](O)[C@@H](O)[C@@H]2O)[C@H](O)[C@@H](O)[C@@H]1O (stereo partly drawn) [OH, n=12, [O-β-D-glucopyranosyl-1,6-]11-D-glucose]
9 | + | OC[C@H]1O[C@@H](OC[C@H]2O[C@@H](OC[C@H]3OC(OCCCl)[C@H](O)[C@@H](O)[C@@H]3O)[C@H](O)[C@@H](O)[C@@H]2O)[C@H](O)[C@@H](O)[C@@H]1O (stereo partly drawn) [α-O(CH2)2Cl, n=3, 2-chloroethyl [O-β-D-glucopyranosyl-1,6]2-D-glucopyranoside]
10 | + | OC[C@H]1O[C@@H](OC[C@H]2O[C@@H](OC[C@H]3O[C@@H](OC[C@H]4OC(OCCCl)[C@H](O)[C@@H](O)[C@@H]4O)[C@H](O)[C@@H](O)[C@@H]3O)[C@H](O)[C@@H](O)[C@@H]2O)[C@H](O)[C@@H](O)[C@@H]1O (stereo partly drawn) [α-O(CH2)2Cl, n=4, 2-chloroethyl [O-β-D-glucopyranosyl-1,6]3-D-glucopyranoside]

Further lines, the compound ahead of its results:

Row | Compound | ELISA assay data: glucan active in detection of anti-beta glucan IgG
11 | COC1O[C@H](CO[C@@H]2O[C@H](CO[C@@H]3O[C@H](CO[C@@H]4O[C@H](CO)[C@@H](O)[C@H](O)[C@H]4O)[C@@H](O)[C@H](O)[C@H]3O)[C@@H](O)[C@H](O)[C@H]2O)[C@@H](O)[C@H](O)[C@H]1O (stereo partly drawn) [OCH3, n=4, methyl [O-β-D-glucopyranosyl-1,6]3-D-glucopyranoside] | +
12 | OC[C@H]1O[C@@H](OC[C@H]2O[C@@H](OC[C@H]3OC(O)[C@H](O)[C@@H](O)[C@@H]3O)[C@H](O)[C@@H](O)[C@@H]2O)[C@H](O)[C@@H](O)[C@@H]1O (stereo partly shown) [OH, n=3] | +
13 | [O-β-D-glucopyranosyl-1,6]6-D-glucopyranoside [OH, n=7] | +
14 | CO[C@H]1O[C@H](CO[C@@H]2O[C@H](CO[C@@H]3O[C@H](CO[C@@H]4O[C@H](CO[C@@H]5O[C@H](CO[C@@H]6O[C@H](CO)[C@@H](O)[C@H](O)[C@H]6O)[C@@H](O)[C@H](O)[C@H]5O)[C@@H](O)[C@H](O)[C@H]4O)[C@@H](O)[C@H](O)[C@H]3O)[C@@H](O)[C@H](O)[C@H]2O)[C@@H](O)[C@H](O)[C@H]1O [OCH3, n=6, methyl [O-β-D-glucopyranosyl-1,6]5-D-glucopyranoside] | +
15 | OCC1OC(OCC2OC(OCC3OC(OCC4OC(OCC5OC(OCC6OC(OCC7OC(OCC8OC(OCC9OC(O)C(O)C(O)C9O)C(O)C(O)C8O)C(O)C(O)C7O)C(O)C(O)C6O)C(O)C(O)C5O)C(O)C(O)C4O)C(O)C(O)C3O)C(O)C(O)C2O)C(O)C(O)C1O (stereo not shown) [OH, n=9] | +
16 | O=C(O)C1CCN(CC(O)[C@@H](O)[C@H](O)[C@H](O)CO[C@@H]2O[C@H](CO[C@@H]3O[C@H](CO[C@@H]4O[C@H](CO[C@@H]5O[C@H](CO)[C@@H](O)[C@H](O)[C@H]5O)[C@@H](O)[C@H](O)[C@H]4O)[C@@H](O)[C@H](O)[C@H]3O)[C@@H](O)[C@H](O)[C@H]2O)C1 (mixture of isomers) [3-pyrrolidineCO2H, n=4] | +
17 | CN(Cc1ccc(C(=O)O)cc1)CC(O)[C@@H](O)[C@H](O)[C@H](O)CO[C@@H]1O[C@H](CO[C@@H]2O[C@H](CO[C@@H]3O[C@H](CO[C@@H]4O[C@H](CO[C@@H]5O[C@H](CO)[C@@H](O)[C@H](O)[C@H]5O)[C@@H](O)[C@H](O)[C@H]4O)[C@@H](O)[C@H](O)[C@H]3O)[C@@H](O)[C@H](O)[C@H]2O)[C@@H](O)[C@H](O)[C@H]1O (mixture of isomers) [N(Me),N(CH2)4-BzOH, n=5] | +
18 | CN(Cc1ccc(C(=O)O)cc1)CC(O)[C@@H](O)[C@H](O)[C@H](O)CO[C@@H]1O[C@H](CO[C@@H]2O[C@H](CO[C@@H]3O[C@H](CO[C@@H]4O[C@H](CO)[C@@H](O)[C@H](O)[C@H]4O)[C@@H](O)[C@H](O)[C@H]3O)[C@@H](O)[C@H](O)[C@H]2O)[C@@H](O)[C@H](O)[C@H]1O (mixture of isomers) [N(Me),N(CH2)4-BzOH, n=4] | +
19 | OC[C@H]1O[C@@H](OC[C@H]2OC(O)[C@H](O)[C@@H](O)[C@@H]2O)[C@H](O)[C@@H](O)[C@@H]1O (stereo partly shown) [OH, n=2] | +
20 | O=CCCCCO[C@@H]1O[C@H](CO[C@@H]2O[C@H](CO[C@@H]3O[C@H](CO[C@@H]4O[C@H](CO)[C@@H](O)[C@H](O)[C@H]4O)[C@@H](O)[C@H](O)[C@H]3O)[C@@H](O)[C@H](O)[C@H]2O)[C@@H](O)[C@H](O)[C@H]1O [β-O(CH2)4C═O, n=4, 1-O-[4-oxybutoxy]-6-O—[O-β-D-glucopyranosyl-(1,6)]3-β-D-glucopyranoside] | +
21 | OCC1OC(OCC2OC(OCC3OC(OCC4OC(OCC5OC(O)C(O)C(O)C5O)C(O)C(O)C4O)C(O)C(O)C3O)C(O)C(O)C2O)C(O)C(O)C1O (stereo not shown) [OH, n=5] | +
22 | OCC1OC(OCC2OC(OCC3OC(OCC4OC(OCC5OC(OCC6OC(OCC7OC(OCC8OC(O)C(O)C(O)C8O)C(O)C(O)C7O)C(O)C(O)C6O)C(O)C(O)C5O)C(O)C(O)C4O)C(O)C(O)C3O)C(O)C(O)C2O)C(O)C(O)C1O (stereo not shown) [OH, n=8] | +
